Where “and” joins values, the source holds several entries; their conditions need not be identical. Identical values can stand only once. Calls of active or inactive are those of the source. The rule behind the calls is not given here.
These compounds were tested against Alkaline phosphatase, tissue-nonspecific isozyme (Homo sapiens) (UniProt P05186) (assay: inhibition of tissue-nonspecific alkaline phosphatase – biochemical, set 2, selectivity assay for mouse IAP inhibitor project, SAR follow-up (AID 588639)). Settings: purified human TNAP enzyme activity, counter-screen for mouse IAP.
Alkaline phosphatase, tissue-nonspecific isozyme (Homo sapiens), sequence (P05186 whole entry, looked up): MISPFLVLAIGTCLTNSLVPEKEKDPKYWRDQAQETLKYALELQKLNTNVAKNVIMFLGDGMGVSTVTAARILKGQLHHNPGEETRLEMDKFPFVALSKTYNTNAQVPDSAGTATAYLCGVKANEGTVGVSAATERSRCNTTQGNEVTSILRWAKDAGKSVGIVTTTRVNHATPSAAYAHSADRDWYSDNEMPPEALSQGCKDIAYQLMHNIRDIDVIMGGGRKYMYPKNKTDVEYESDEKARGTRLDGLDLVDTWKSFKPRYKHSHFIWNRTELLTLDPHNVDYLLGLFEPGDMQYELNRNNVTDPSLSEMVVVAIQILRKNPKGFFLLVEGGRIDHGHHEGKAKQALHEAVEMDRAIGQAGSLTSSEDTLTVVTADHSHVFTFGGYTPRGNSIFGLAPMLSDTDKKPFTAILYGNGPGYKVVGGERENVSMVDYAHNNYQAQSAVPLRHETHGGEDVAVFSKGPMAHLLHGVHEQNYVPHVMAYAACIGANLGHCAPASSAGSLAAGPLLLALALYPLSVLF

**Q.** With `O=C(CCNS(=O)(=O)c1ccc2[nH]c(=O)oc2c1)NCc1ccc(O)c(O)c1` as the compound, how does the IC50 read?
**A.** > 100 µM (inactive)

**Q.** With `CSc1cccc(NC(=O)CCNS(=O)(=O)c2ccc3c(c2)oc(=O)n3C)c1` as the compound, how does the IC50 read?
**A.** > 100 µM (inactive)

**Q.** How did the IC50 turn out when `Cc1ccc(NC(=O)CCNS(=O)(=O)c2ccc3c(c2)oc(=O)n3C)c(C)c1` was run?
**A.** > 100 µM (inactive)

**Q.** How did the IC50 turn out when `O=C(CCCNS(=O)(=O)c1ccc2[nH]c(=O)oc2c1)NCc1cccc(F)c1` was run?
**A.** 51.4 µM and > 100 µM (inactive)

**Q.** For `COc1ccc(NC(=O)CCNS(=O)(=O)c2ccc3c(c2)CCC3)cc1OC`, which IC50 is on record?
**A.** > 100 µM (inactive)

**Q.** With `COc1ccc(/C=N\NC(=O)c2cc(O)c(O)c(O)c2)cc1CN1CCN(c2ccc(F)cc2)CC1` as the compound, how does the IC50 read?
**A.** > 100 µM (inactive)

**Q.** `N#Cc1ccc(NS(=O)(=O)c2ccc3[nH]c(=O)oc3c2)cc1` was tested. Which IC50 did it give?
**A.** > 100 µM (inactive)

**Q.** For `O=C(N/N=C/c1ccc(F)c(Br)c1)c1cc(O)c(O)c(O)c1`, which IC50 is on record?
**A.** > 100 µM (inactive)

**Q.** How did the IC50 turn out when `COc1ccc(CNC(=O)CCNS(=O)(=O)c2ccc3[nH]c(=O)oc3c2)c(OC)c1` was run?
**A.** > 100 µM (inactive)

**Q.** `COc1ccc(CNC(=O)CCNS(=O)(=O)c2ccc3ccccc3c2)c(OC)c1` was tested. Which IC50 did it give?
**A.** > 100 µM (inactive)

**Q.** Which IC50 does the source give for `O=C(CCNS(=O)(=O)c1ccc2[nH]c(=O)oc2c1)Nc1ccc2c(c1)OCO2` here?
**A.** > 100 µM (inactive)

**Q.** Which IC50 does the source give for `O=C(CCNS(=O)(=O)c1ccc2[nH]c(=O)oc2c1)NCc1cccc(Cl)c1` here?
**A.** > 100 µM (inactive)

**Q.** For `O=C(CCCNS(=O)(=O)c1ccc2[nH]c(=O)oc2c1)NCc1ccccc1Cl`, which IC50 is on record?
**A.** 80.9 µM and > 100 µM (inactive)

**Q.** Which IC50 does the source give for `O=C(N/N=C/c1ccccc1F)c1ccccc1OCc1ccccc1` here?
**A.** > 100 µM (inactive)

**Q.** Which IC50 does the source give for `O=C(NCc1ccccc1)C1CCCN(S(=O)(=O)c2ccc3[nH]c(=O)oc3c2)C1` (stereo unspecified) here?
**A.** > 100 µM (inactive)

**Q.** `O=C(CCNS(=O)(=O)c1ccc2c(c1)CCC2)NCCc1ccc2c(c1)OCO2` was tested. Which IC50 did it give?
**A.** > 100 µM (inactive)

**Q.** With `O=C(N/N=C/c1ccccc1C(F)(F)F)c1cc(O)c(O)c(O)c1` as the compound, how does the IC50 read?
**A.** > 100 µM (inactive)

**Q.** For `Cc1ccc(C)c(NC(=O)CCNS(=O)(=O)c2ccc3[nH]c(=O)oc3c2)c1`, which IC50 is on record?
**A.** > 100 µM (inactive)

**Q.** For `O=C(CCCNS(=O)(=O)c1ccc2[nH]c(=O)oc2c1)NCc1ccc2c(c1)OCO2`, which IC50 is on record?
**A.** > 100 µM (inactive)

**Q.** `COc1ccc(/C=N/NC(=O)c2cc(O)c(O)c(O)c2)c(OC)c1` was tested. Which IC50 did it give?
**A.** > 100 µM (inactive)

**Q.** Which IC50 does the source give for `CSc1cccc(NC(=O)C2CCCN(S(=O)(=O)c3ccc4c(c3)oc(=O)n4C)C2)c1` (stereo unspecified) here?
**A.** > 100 µM (inactive)

**Q.** Which IC50 does the source give for `COc1cc(C(=O)N/N=C/c2c(F)cccc2Cl)cc(OC)c1OC` here?
**A.** > 100 µM (inactive)

**Q.** For `O=C(CCNS(=O)(=O)c1ccc2[nH]c(=O)oc2c1)NCc1ccccc1F`, which IC50 is on record?
**A.** > 100 µM (inactive)

**Q.** Which IC50 does the source give for `O=C(CCNS(=O)(=O)c1ccc2[nH]c(=O)oc2c1)NCc1ccc(C(F)(F)F)cc1` here?
**A.** > 100 µM (inactive)

**Q.** For `O=C(CCCNS(=O)(=O)c1ccc2[nH]c(=O)oc2c1)NCCc1ccc(O)cc1`, which IC50 is on record?
**A.** 74.6 µM

**Q.** With `C/C(=N\NC(=O)c1cc(O)c(O)c(O)c1)c1ccc(O)cc1O` as the compound, how does the IC50 read?
**A.** > 100 µM (inactive)

**Q.** For `O=c1[nH]c2ccc(S(=O)(=O)Nc3ccc4c(c3)OCO4)cc2o1`, which IC50 is on record?
**A.** > 100 µM (inactive)

**Q.** How did the IC50 turn out when `O=C(N/N=C/c1ccc(Cl)c(Cl)c1)c1cc(O)c(O)c(O)c1` was run?
**A.** > 100 µM (inactive)

**Q.** How did the IC50 turn out when `O=C(CCNS(=O)(=O)c1ccc2[nH]c(=O)oc2c1)NCc1ccc(F)cc1` was run?
**A.** > 100 µM (inactive)

**Q.** `COc1ccc(CNS(=O)(=O)c2ccc3[nH]c(=O)oc3c2)cc1` was tested. Which IC50 did it give?
**A.** > 100 µM (inactive)

**Q.** With `Cc1ccc(NC(=O)CCNS(=O)(=O)c2ccc3c(c2)oc(=O)n3C)cc1` as the compound, how does the IC50 read?
**A.** > 100 µM (inactive)

**Q.** For `COc1ccc(NC(=O)CCCNS(=O)(=O)c2ccc3[nH]c(=O)oc3c2)cc1OC`, which IC50 is on record?
**A.** > 100 µM (inactive)

**Q.** `COc1cccc(C(=O)N/N=C/c2ccccc2F)c1` was tested. Which IC50 did it give?
**A.** > 100 µM (inactive)

**Q.** `COc1ccc(CNC(=O)CCNS(=O)(=O)c2ccc3c(c2)CCC3)c(OC)c1` was tested. Which IC50 did it give?
**A.** > 100 µM (inactive)

**Q.** Which IC50 does the source give for `COc1ccc(CNC(=O)CCCNS(=O)(=O)c2ccc3[nH]c(=O)oc3c2)cc1OC` here?
**A.** > 100 µM (inactive)

**Q.** How did the IC50 turn out when `Cc1ccc(C)c(NC(=O)CNS(=O)(=O)c2ccc3[nH]c(=O)oc3c2)c1` was run?
**A.** > 100 µM (inactive) and 34.8 µM

**Q.** `O=C(N/N=C/c1c(F)cccc1F)c1ccc(O)cc1` was tested. Which IC50 did it give?
**A.** > 100 µM (inactive)

**Q.** Which IC50 does the source give for `O=c1[nH]c2ccc(S(=O)(=O)NCCc3ccc4c(c3)OCO4)cc2o1` here?
**A.** > 100 µM (inactive)

**Q.** Which IC50 does the source give for `O=C(CCNS(=O)(=O)c1ccc2[nH]c(=O)oc2c1)NCCc1ccc2c(c1)OCO2` here?
**A.** > 100 µM (inactive)

**Q.** How did the IC50 turn out when `COc1ccc(NC(=O)CCNS(=O)(=O)c2ccc3[nH]c(=O)oc3c2)cc1OC` was run?
**A.** 74.4 µM and 65.5 µM

**Q.** With `CCOc1ccc(CNC(=O)C2CCCN(S(=O)(=O)c3ccc4[nH]c(=O)oc4c3)C2)cc1OC` (stereo unspecified) as the compound, how does the IC50 read?
**A.** > 100 µM (inactive)

Source: PubChem BioAssay AID588639 (Sanford-Burnham Center for Chemical Genomics, 2011)
